Earlier results on 4 molecules are cited in patent publication US20240418706A1, “QUANTIFICATION OF CIRCULATING REGENERATIVE AND ENDOTHELIAL PROGENITOR CELLS AS PREDICTORS OF HEALTH STATUS” (priority 2022, published 2024).

For data set [1] the following is noted: >17,000 healthy persons without hyperlipidemia but with elevated high-sensitivity C-reactive protein.
For data set [2], the system named is circulating EPC. Conditions: in vivo.
The subject of data set [3] is circulating EPC. The conditions noted are these: lipid lowering therapy.
In data set [4] the test system is endothelial responsiveness.
In the next data set the test system is EPC. The conditions noted are these: in vivo.
For data set [5] the following is noted: 114 patients, 56 treated and 58 control.
For data set [6] the following is noted: 6 days of G-CSF at 10 μg/kg.
The conditions of data set [7]: 41 patients with large anterior wall AMI.

Like-named read-outs stand apart in the source and are kept apart here.

In the case of `CC(C)c1nc(N(C)S(C)(=O)=O)nc(-c2ccc(F)cc2)c1/C=C/[C@@H](O)C[C@@H](O)CC(=O)O` [Crestor], in data set [1], the CRP levels entry is given as “lowering CRP levels” and the “incidence of major cardiovascular incidents” value is given as “significantly reduced”. Besides, the “circulating EPC levels” value with circulating EPC [2] is given as “increase circulating EPC levels”.

For `CC(C)c1c(C(=O)Nc2ccccc2)c(-c2ccccc2)c(-c2ccc(F)cc2)n1CC[C@@H](O)C[C@@H](O)CC(=O)O` [atorvastatin], in the data set on circulating EPC [3], the “circulating EPC” value is “increase circulating EPC” and the oxidative stress entry was “reduced oxidative stress”.

In the case of “growth hormone: growth hormone, used in "antiaging medicine"”, the endothelial responsiveness entry in data set [4] (healthy volunteers) and in data set [4] (patients with congestive heart failure) was “improve endothelial responsiveness” throughout.

B1: G-CSF: Granulocyte colony stimulating factor, used clinically for mobilization of hematopoietic stem cells (protein, UniProt P09919 31-207, looked up)
Granulocyte …: TPLGPASSLPQSFLLKCLEQVRKIQGDGAALQEKLVSECATYKLCHPEELVLLGHSLGIPWAPLSSCPSQALQLAGCLSQLHSGLFLYQGLLQALEGISPELGPTLDTLQLDVADFATTIWQQMEELGMAPALQPTQGAMPAFASAFQRRAGGVLVASHLQSFLEVSYRVLRHLAQP
For the molecule B1, the “mobilization of EPC” value with EPC is listed as “stimulates mobilization of EPC”. Also, in data set [5], the “infarct size, left ventricular function, or coronary restenosis” value is “no influence”. For the same molecule, the “myocardial wall at the area of infarct” value in data set [6] (four months after the infarct, sustained over a year, compared to controls) is given as “thicker myocardial wall”. In addition, in data set [6] (in comparison to controls), the ejection fraction entry is on record as “Statistically significant improvements” and the pathological remodeling entry is reported as “inhibition of pathological remodeling”. In data set [7], the LVEF result was “improvement in LVEF” and the pathological remodeling result is reported as “diminished pathological remodeling”.
